# Assay results taken from ChEMBL document CHEMBL1128067, “Isosteric replacement of the indole nucleus by benzothiophene in a series of pyrido[2,3-b]indoles with potential anxiolytic activity” (Bioorg Med Chem Lett, 1995).
# How the values were obtained:
# [1] = target: GABA-A receptor; anion channel; experiment: In vitro inhibition of [35S]t-butyl-bicyclophosphorothionate (TBPS) binding to Gamma-aminobutyric acid A (GABA-A) receptor; assay type: protein-complex assay, Rattus norvegicus
# Rattus norvegicus [2] = experiment: Percent change in punished responding phase (FR) after administration of 20 mg/Kg oral dose in rat Geller-Seifter test; assay type: functional
# Rattus norvegicus [3] = experiment: Percent change in variable interval unpunished responding phase (VI) after administration of 20 mg/Kg oral dose in rat Geller-Seifter test.; assay type: functional
# Rattus norvegicus [4] = species: Rattus norvegicus; experiment: Number of animals responding to the above phases out of 6 tested, expressed as Nr/N; assay type: functional
# [5] = target: GABA-A receptor; anion channel; experiment: Inhibition of [3H]flunitrazepam binding to GABA-A receptor; assay type: protein-complex assay, Rattus norvegicus
# Rattus norvegicus [6] = species: Rattus norvegicus; experiment: Number of animals responding to the above phases out of 16 tested, expressed as Nr/N; assay type: functional
# Rattus norvegicus [7] = experiment: Percent change in variable interval unpunished responding phase (VI) after administration of 40 mg/Kg intraperitoneally in rat Geller-Seifter test.; assay type: functional
# Rattus norvegicus [8] = species: Rattus norvegicus; experiment: Number of animals responding to the above phases out of 8 tested, expressed as Nr/N; assay type: functional
# Rattus norvegicus [9] = experiment: Percent change in punished responding phase (FR) after administration of 40 mg/Kg intraperitoneally in rat Geller-Seifter test; assay type: functional
# Rattus norvegicus [10] = experiment: Percent change in punished responding phase (FR) after administration of 20 mg/kg oral dose in rat Geller-Seifter test; assay type: functional
# Rattus norvegicus [11] = experiment: Percent change in variable interval unpunished responding phase (VI) after administration of 20 mg/kg oral dose in rat Geller-Seifter test.; assay type: functional
# Rattus norvegicus [12] = experiment: Percent change in punished responding phase (FR) after administration of 20 mg/kg oral dose in rat Geller-Seifter test.; assay type: functional
# Rattus norvegicus [13] = experiment: Percent change in punished responding phase (FR) after administration of 10 mg/Kg oral dose in rat Geller-Seifter test; assay type: functional
# Rattus norvegicus [14] = experiment: Percent change in variable interval unpunished responding phase (VI) after administration of 10 mg/Kg oral dose in rat Geller-Seifter test; assay type: functional
Compound,IC50 [1] [µM],Nr/N (Rattus norvegicus [4]),IC50 [5] [µM],other results
CC1CCc2nc3sc4c(c3c(N)c2C1=O)CCC4 (stereo unspecified),1.7,5,,Change (Rattus norvegicus [2]): 26%; Change (Rattus norvegicus [3]): 0%
COC(=O)c1c(C)nc2c(c(C)c(C)n2C)c1N,12,,> 100,
Cn1c2ccccc2c2c(N)c3c(nc21)CCCC3,> 100,,,
CCOC(=O)c1c(C)nc2c(c1N)c1ccccc1n2C,,,> 100,Change (Rattus norvegicus [2]): 22%; Change (Rattus norvegicus [3]): -3%; Nr/N (Rattus norvegicus [6]): 12
CC1CCc2nc3sc4ccccc4c3c(N)c2C1=O (stereo unspecified),0.46,5,,Change (Rattus norvegicus [2]): 30%; Change (Rattus norvegicus [3]): 0%
CC1CCc2nc3sc4c(c3c(N)c2C1=O)CCCC4 (stereo unspecified),1.6,,,
COC(=O)c1c(C)nc2sc3c(c2c1N)CCCC3,7.5,,,Change (Rattus norvegicus [7]): 0%; Nr/N (Rattus norvegicus [8]): 8; Change (Rattus norvegicus [9]): 42%
CC1CCc2nc3c(c(N)c2C1=O)c1c(n3C)CCCC1 (stereo unspecified),2.7,5,18,Change (Rattus norvegicus [10]): 28%; Change (Rattus norvegicus [11]): 1%
CC1CCc2nc3sc4c(c3c(N)c2C1=O)CCCCC4 (stereo unspecified),0.37,,,
CC1CCc2nc3c(c(N)c2C1=O)c1ccccc1n3C (stereo unspecified),,5,> 100,Change (Rattus norvegicus [2]): 52%; Change (Rattus norvegicus [3]): 0%
Nc1c2c(nc3sc4c(c13)CCCCC4)CCCC2=O,0.29,,> 100,
Cn1c2c(c3c(N)c4c(nc31)CCCC4=O)CCCC2,6.3,,,
Cn1c2ccccc2c2cc3c(nc21)CCCC3=O,10,3,> 100,Change (Rattus norvegicus [12]): 4%; Change (Rattus norvegicus [11]): 2%
CN1C(=O)CN=C(c2ccccc2)c2cc(Cl)ccc21 [DIAZEPAM],,,,Change (Rattus norvegicus [13]): 114%; Change (Rattus norvegicus [14]): 10%; Nr/N (Rattus norvegicus [8]): 7
